# Experiments:
# Experiment in all cases: scanMAX kinase panel
# Type in all cases: binding
# Conditions in all cases: read-out: % Control; for remaining binding at 1 µM: 1000 nM
# CDK8 = biological target: T1, CDK8 (Homo sapiens, UniProt P49336)
# T1 construct: purchased DiscoverX scanMAX
# Description: (§1) Supplemental Table S2. scanMAXSM Kinome Assay Results. Complete tabulated data of all 468 kinases from the panel, including
# (§2) 403 wild-type and 65 mutant isoforms. […] Cmpd 11 and Cmpd 24
# FLT3(D835H) = biological target: T2, FLT3(D835H) (Homo sapiens, UniProt P36888, D835H)
# T2 construct: purchased DiscoverX scanMAX
# T2 sequence (P36888 27-993 D835H): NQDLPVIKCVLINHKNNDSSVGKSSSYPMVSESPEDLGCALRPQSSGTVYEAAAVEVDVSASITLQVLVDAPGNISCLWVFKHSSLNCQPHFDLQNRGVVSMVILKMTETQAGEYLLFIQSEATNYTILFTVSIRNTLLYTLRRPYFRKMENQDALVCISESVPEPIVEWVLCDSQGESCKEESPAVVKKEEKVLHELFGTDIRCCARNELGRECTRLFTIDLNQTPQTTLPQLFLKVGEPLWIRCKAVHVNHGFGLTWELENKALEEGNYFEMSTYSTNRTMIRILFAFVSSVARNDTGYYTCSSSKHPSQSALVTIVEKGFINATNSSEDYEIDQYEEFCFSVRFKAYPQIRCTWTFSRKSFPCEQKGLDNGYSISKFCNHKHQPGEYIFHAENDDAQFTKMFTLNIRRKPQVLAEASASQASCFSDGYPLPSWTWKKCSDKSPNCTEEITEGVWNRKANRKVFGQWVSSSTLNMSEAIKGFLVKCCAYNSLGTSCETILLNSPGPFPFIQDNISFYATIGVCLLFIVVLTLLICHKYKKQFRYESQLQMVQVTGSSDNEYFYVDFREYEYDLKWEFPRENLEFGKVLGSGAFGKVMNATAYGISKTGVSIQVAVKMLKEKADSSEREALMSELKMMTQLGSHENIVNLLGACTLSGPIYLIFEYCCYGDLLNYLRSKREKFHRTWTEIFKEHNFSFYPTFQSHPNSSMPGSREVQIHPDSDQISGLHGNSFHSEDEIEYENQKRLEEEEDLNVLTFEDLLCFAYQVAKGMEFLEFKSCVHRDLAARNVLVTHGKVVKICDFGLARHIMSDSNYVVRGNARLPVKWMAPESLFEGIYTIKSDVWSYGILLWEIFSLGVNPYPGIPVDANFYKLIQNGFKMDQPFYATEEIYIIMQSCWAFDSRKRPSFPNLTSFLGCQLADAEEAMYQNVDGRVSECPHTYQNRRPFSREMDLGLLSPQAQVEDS
# Description: as §1, §2
# LOK = biological target: T3, LOK (Homo sapiens, UniProt O94804)
# T3 construct: purchased DiscoverX scanMAX
# T3 sequence (O94804 whole entry): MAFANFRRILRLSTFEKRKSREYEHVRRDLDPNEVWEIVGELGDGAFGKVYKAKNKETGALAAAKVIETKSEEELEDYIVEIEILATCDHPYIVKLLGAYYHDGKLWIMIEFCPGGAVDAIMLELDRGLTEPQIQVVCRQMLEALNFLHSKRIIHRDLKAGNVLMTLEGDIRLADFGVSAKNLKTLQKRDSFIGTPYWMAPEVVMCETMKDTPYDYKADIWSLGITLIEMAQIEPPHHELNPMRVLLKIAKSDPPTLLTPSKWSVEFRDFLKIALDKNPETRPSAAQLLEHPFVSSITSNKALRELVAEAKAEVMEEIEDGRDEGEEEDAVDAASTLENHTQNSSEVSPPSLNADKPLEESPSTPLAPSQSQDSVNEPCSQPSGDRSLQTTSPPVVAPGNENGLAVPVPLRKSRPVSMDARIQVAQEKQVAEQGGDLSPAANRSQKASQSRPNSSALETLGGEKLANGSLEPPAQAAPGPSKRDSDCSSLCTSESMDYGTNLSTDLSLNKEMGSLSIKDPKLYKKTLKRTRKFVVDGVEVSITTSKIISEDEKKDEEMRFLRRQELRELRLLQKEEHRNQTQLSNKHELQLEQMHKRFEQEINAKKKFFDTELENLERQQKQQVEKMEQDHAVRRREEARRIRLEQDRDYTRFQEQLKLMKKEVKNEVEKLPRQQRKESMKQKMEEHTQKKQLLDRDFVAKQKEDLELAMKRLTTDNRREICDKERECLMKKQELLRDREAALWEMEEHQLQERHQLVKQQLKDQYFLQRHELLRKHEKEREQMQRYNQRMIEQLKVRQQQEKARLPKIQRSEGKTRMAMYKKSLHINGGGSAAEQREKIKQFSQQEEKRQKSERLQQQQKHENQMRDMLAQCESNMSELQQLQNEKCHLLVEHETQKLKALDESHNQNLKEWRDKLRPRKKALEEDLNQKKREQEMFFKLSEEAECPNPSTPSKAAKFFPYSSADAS
# Description: as §1, §2
# MERTK = biological target: T4, MERTK (Homo sapiens, UniProt Q12866)
# T4 construct: purchased DiscoverX scanMAX
# T4 sequence (Q12866 21-999): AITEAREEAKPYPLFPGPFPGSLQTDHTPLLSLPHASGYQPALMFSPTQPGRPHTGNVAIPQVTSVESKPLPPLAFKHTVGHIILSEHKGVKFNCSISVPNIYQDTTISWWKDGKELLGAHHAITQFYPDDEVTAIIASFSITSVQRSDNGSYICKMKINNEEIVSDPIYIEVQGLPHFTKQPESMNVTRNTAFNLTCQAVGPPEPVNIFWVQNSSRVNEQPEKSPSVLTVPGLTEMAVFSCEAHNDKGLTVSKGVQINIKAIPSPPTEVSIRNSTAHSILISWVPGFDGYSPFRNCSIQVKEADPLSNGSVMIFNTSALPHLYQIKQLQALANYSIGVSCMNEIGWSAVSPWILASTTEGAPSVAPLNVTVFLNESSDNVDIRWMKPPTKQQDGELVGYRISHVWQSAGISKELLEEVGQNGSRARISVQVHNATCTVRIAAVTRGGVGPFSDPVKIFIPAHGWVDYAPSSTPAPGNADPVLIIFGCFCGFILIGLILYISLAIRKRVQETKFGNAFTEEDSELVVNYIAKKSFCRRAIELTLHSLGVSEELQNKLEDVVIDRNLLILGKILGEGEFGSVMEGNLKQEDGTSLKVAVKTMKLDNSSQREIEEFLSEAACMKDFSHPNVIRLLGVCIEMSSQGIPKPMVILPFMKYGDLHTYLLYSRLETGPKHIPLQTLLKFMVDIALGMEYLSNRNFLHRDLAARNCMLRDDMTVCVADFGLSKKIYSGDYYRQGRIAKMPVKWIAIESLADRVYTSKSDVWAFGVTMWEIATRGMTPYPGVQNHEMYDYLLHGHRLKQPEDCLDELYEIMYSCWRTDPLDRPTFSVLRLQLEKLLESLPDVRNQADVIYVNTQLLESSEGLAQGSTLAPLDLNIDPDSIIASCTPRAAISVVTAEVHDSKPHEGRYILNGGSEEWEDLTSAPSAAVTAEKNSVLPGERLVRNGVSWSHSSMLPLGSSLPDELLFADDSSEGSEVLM
# Description: as §1, §2
# T1 sequence (P49336 whole entry): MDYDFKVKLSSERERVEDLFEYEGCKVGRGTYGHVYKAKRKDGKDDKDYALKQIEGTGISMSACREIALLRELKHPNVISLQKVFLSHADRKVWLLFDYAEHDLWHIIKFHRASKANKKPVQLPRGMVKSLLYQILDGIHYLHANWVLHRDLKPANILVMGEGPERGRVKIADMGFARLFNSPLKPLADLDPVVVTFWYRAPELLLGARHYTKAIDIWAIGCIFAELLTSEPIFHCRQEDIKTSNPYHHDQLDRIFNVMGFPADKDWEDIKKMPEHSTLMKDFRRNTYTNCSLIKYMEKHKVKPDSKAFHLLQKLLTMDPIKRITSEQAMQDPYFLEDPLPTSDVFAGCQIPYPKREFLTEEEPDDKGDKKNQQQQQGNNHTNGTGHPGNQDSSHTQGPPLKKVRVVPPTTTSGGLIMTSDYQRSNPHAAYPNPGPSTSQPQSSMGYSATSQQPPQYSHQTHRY
SMILES,remaining binding at 1 µM (CDK8) [%],remaining binding at 1 µM (FLT3(D835H)) [%],remaining binding at 1 µM (LOK) [%],remaining binding at 1 µM (MERTK) [%],remaining binding at 0.1 µM (CDK8; 100 nM) [%],remaining binding at 0.1 µM (FLT3(D835H); 100 nM) [%],remaining binding at 0.1 µM (LOK; 100 nM) [%],remaining binding at 0.1 µM (MERTK; 100 nM) [%]
"Cc1cc(NC(=O)[C@H](O)c2cccc(F)c2)ccc1-c1cn(C)c2ncnc(N)c12 [Compound 11, (R)-N-(4-(4-amino-7-methyl-7H-pyrrolo[2,3-d]pyrimidin-5-yl)-3-methylphenyl)-2-(3-fluorophenyl)-2-hydroxy acetamide]",2.5,33,4,65,,,,
Cc1nc(N)c2c(-c3ccc(NC(=O)[C@H](O)c4cccc(F)c4)cc3C)cn(C)c2n1 [Compound 24],98,98,88,100,,,,
Cc1nc(N)c2c(-c3ccc(NC(=O)[C@H](O)c4cccc(C(F)(F)F)c4)cc3C)cn(C)c2n1 [Compound 26],57,25,12,29,100,85,94,94

# From publication PMC9611727, “Optimization of a Novel Mandelamide-Derived Pyrrolopyrimidine Series of PERK Inhibitors” (Pharmaceutics, 2022)
